# Earlier results, collected in US20220211813A1, “METHODS FOR TREATMENT OF NIEMANN-PICK DISEASE TYPE C” (LOMA LINDA UNIVERSITY, priority 2019, published 2022).
# Test system: IFN-γ
# Conditions: as described in Pododlin et al. J Pharmacol Exp Ther. 312(1):373-81, 2005
smiles,measurement,value
NC(=O)Nc1sc(-c2ccc(F)cc2)cc1C(N)=O [TPCA-1],blocks IFN-γ,about 50%
